Experimental data from US6919441B2, “Polyamide-oligonucleotide derivatives, their preparation and use” (Aventis Pharma Deutschland GmbH, priority 1995, dated 2005).
In the oligonucleotide strings, read from the 5' end, every base follows the letter of its sugar. An asterisk marks phosphorothioate; unmarked linkages are phosphodiester. Other units and linkages are bracketed, terminal groups are in braces. A string of capitals states the bases alone. d = 2'-deoxy (DNA)

Legend:
[1] = system: complementary RNA (T = U); assay: Melting temperature (TM) with complementary RNA; assay type: binding; conditions: ap; 3′-TGT AGT ACC AGC-5′ (T = U); 10 mM HEPES, 140 mM NaCl, pH 7.5
Protocol: (§1) The melting temperatures are determined using an HP 8452A diode array spectrophotometer, an HP 89090A Peltier element and the HP temperature control software Rev.B5.1 (from Hewlett Packard). Measurements are carried out in 0.5° C./min steps in 10 mM HEPES and 140 mM NaCl (pH 7.5) as buffer. The oligomer concentration is 0.5 to 1 OD260 per ml.

complementary DNA = assay: Melting temperature (TM) with complementary DNA; assay type: binding; conditions: 10 mM HEPES, 140 mM NaCl, pH 7.5
Protocol: as §1

[2] = system: Ha-ras protein expression; assay: Anti-Ha-ras activity, Western blot in RS485 cells; assay type: cell-based
Protocol: RS485 cells (40-60% confluency) were either treated with the PNS_DNA chimera alone or transfected with PNA-DNA chimera using Lipofectin™ Reagent and the protocol from Life Technologies. Briefly, varying concentrations of oligomers were diluted in 100 μl of serum-free medium. In a separate tube Lipofectin was added to serum-free medium at a concentration of 7 μl/100 μl. After 30 minutes at room temperature, 100 μl of Lipofectin solution was mixed with 100 μl of ODN solution, incubated for an additional 15 minutes at room temperature, and mixed with 800 μl of serum-free medium. Cells were washed two times with serum-free medium, and the total solution (1 ml) containing the ODN-Lipofectin complex was overlayed onto the cells. After 6 hours, 1 ml of fresh medium containing 8 mM L-glutamine and 20% calf serum was added, and the cells were incubated for an additional 38 hours. Treated cells were washed with PBS, harvested with trypsin, and cellular proteins were extracted. The ras Protein was then determined by Western Blot Analysis. Total cellular protein was prepared by lysing cells in RIPA buffer with freshly added inhibitors (PMSF, aprotinin, sodium orthovanadate) and homogenizing through 21-gauge needles according to the protocol provided by Santa Cruz Biotechnology, Inc. The extracts were cleaned by centrifugation at 15,000 xg for 20 min at 4° C. and the protein concentration of the supernatant was determined. 40 μg of protein was size fractionated in 5-12.5% PAGE and electroblotted onto a nitrocellulose membrane. The membrane was incubated with primary antibody against Ha-Ras (C-20) (Santa Cruz Biotechnology, Inc.) and then with Horseradish Peroxidase-conjugated goat anti-rabbit immunoglobulin G. The ECL chemo-luminescent Western system (Amersham, Arlington Heights, Ill.) was used to detect secondary probes.

[3] = system: VEGF (vascular endothelial growth factor); assay: Inhibition of VEGF expression (ELISA of culture supernatants); assay type: cell-based, human
Protocol: Cell Culture: Normal human epidermal keratinocytes (NHEK cells) were grown in KGM growth medium (Clonetics).
Both human estrogen responsive breast tumor (MCF-7) cells and human estrogen-independent breast tumor (MDA-MB-231) cells were grown in IMEM (Biofluids) supplemented with 10% FBS (Gibco-BRL) and 1:100 antibiotic-antimycotic (Gibco-BRL).
Cellular assays: NHEK cells were seeded at a density of ˜50,000 cells per well in 48-well plates in 0.5 ml of KGM growth medium (Clonetics) and incubated in humidified incubators at 37° C. The following day, the growth medium was replaced with fresh medium containing the PNA-DNA chimera alone or as mixture with Cellfectin, a cationic lipid uptake enhancer for nucleic acids (Life Technologies). Incubation of cells with the oligomer formulation was followed by a wash after 4 hours and cells were returned to fresh unsupplemented medium. Sixteen and/or 40 hr post-stimulation the culture supernatants were removed and used for ELISA, or saved at −80° C. for future analysis. To assay MCF-7 or MDA-MB-231 cells. MCF-7/MDA-MB-231 cells were seeded at a density of ˜100,000 cells per well plates in 0.5 ml of IMEM and incubated under standard conditions. […] VEGF protein levels in the supernatant were determined using a commercially available ELISA kit (R&D Systems).

[4] = system: DNA double strand (homopurine motif); assay: Binding as triplex-forming oligonucleotide to double-stranded DNA
[5] = Stability of the oligomer in medium containing cells; assay type: in vitro ADME
Protocol: Vero cells are incubated in DMEM, 5% FCS, in 96-well microtiter plates at 37° C. for 24 hours. After removal of the medium, the cells are washed twice with serum-free DMEM. The radioactively labeled oligomer (10^6 cpm) is diluted with unlabeled oligomer to a concentration of 10 μM in serum, and the cells are incubated at 37° C. therewith. 150 μl portions are removed after 1, 7 and 24 hours (called “supernatant 1”). The cells in the wells of the microtiter plates are washed 7 times with 300 μl of fresh medium, and the combined washing media (called “supernatant 2”) are measured in a scintillation counter. Then 100 μl of trypsin solution are added, 30 seconds are allowed to elapse, and the supernatant is aspirated off. The cells are detached from the plate by incubating at 37° C. for 3 min. The detached cells are transferred into 1.5 ml Eppendorf tubes and centrifuged at 2,000 rpm for 6 minutes (“supernatant 3”). Supernatants 1 (5 μl), 2 and […] (0.5 ml) are each measured separately in a scintillation counter. From this is calculated the uptake of oligomer in pmol per 100,000 cells, with supernatant 3 representing the cell-bound oligomer fraction and the total of supernatants 1 and 2 representing the non-cell-bound oligomer fraction.
Supernatant 1 (10 μl) is mixed with 5 μl of 80% formamide (with Xylenecyanol and bromphenolblue), heated to 95° C. […]

[6] = target: DNA polymerase (Klenow fragment) (Escherichia coli, UniProt P00582); assay: DNA polymerase reaction (primer function); assay type: biochemical; conditions: 22° C. and 37° C., 10% polyacrylamide gel
DNA polymerase (Klenow fragment), sequence (P00582 324-928): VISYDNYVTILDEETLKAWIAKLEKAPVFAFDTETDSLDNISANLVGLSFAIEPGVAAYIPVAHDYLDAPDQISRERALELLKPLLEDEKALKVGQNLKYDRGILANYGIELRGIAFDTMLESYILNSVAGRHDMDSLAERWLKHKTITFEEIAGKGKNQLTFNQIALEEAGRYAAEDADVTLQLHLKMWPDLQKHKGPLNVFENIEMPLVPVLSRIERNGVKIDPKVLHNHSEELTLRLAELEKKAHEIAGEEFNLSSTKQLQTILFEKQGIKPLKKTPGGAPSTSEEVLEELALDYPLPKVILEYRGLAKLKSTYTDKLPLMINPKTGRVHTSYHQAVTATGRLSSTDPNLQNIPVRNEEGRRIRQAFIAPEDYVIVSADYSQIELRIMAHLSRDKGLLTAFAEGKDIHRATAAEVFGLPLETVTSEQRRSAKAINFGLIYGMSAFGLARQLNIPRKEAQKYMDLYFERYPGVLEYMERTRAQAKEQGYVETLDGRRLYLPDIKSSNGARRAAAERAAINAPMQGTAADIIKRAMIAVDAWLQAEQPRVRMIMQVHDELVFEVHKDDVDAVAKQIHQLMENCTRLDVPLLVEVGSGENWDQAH
Description: The following 81-mer oligodeoxynucleotide is used as template for the DNA polymerase reaction: • 5′-GCCCCAGGGAGAAGGCAACTGGACCGAAGGCGCTTGTGGAGAAGGAGTTCATAGCTGGGCTCCCTATAGTGAGTCGTATTA-3′(SEQ ID NO:50)
The sequence of the PNA/DNA primer is: • H-taa tac gac tca cta (5NH-T)-OH 3′(SEQ ID NO:62).
A corresponding oligodeoxynucleotide of the sequence 5′-TAA TAC GAC TCA CTA TAG-3′ (SEQ ID NO:51) is used as control primer.
The primer (0.15 nmol) and the template (0.15 nmol) in 5 μl of 10×PCR buffer ([…], 100 mM tris-HCl, pH 9, 1% Triton X-100, 15 MM MgCl2) are diluted with 35 μl of water and hybridized by heating to 95° C. and cooling. Then 10 μl of 2 mM dNTP mixture (nucleoside 5′-triphosphates) and 3 μl of DNA polymerase (Klenow fragment) are added, and the mixture is incubated at 22° C. and 37° C. for 0.5 hour each. The reaction solution is then analyzed on a 10% polyacrylamide gel (with 1% bis). pBR322/HaeIII digestion is loaded as marker. […] In both cases the double strand migrates […] than the template single strand in the gel electrophoresis.

c-Fos protein expression = assay: Inhibition of c-Fos protein expression in the rat (spinal cord superfusion); assay type: in vivo, Sprague-Dawley rat; conditions: 75 μM, 6 hours, heat stimulation
Description: The determination takes place as described (Sandkühler et al. (1991) in: Proceedings of the VIth World Congress on Pain, Charlton and Woolf, Editors; Elsevier, Amsterdam; pages 313-318) by superfusion of the spinal cord. After laminectomy of a barbiturate-anesthetized Sprague-Dawley rat, a two-chamber container is formed from silicone to receive the antisense oligomer. One chamber is filled with the antisense PNA/DNA derivative, while the other chamber is filled with the control oligomer (concentration of each 75 μM). The superfusate is exchanged in each case after one hour. After superfusion for 6 hours, c-fos expression is stimulated by heat treatment (52° C.) of the rear legs.

COS cells = assay: Cellular uptake by fluorescence labeling (fluorescence microscopy); assay type: cell-based; conditions: 0.1 mM oligomer
Protocol: COS cells are allowed to grow to confluence in Dulbecco's MEM supplemented with 10% FCS in 5 cm Petri dishes. The cells are washed twice with serum-free DMEM. A sterile needle is used to scratch an area of about 1 cm^2 in the middle of the Petri dish. The PNA/DNA oligomer solution (0.1 mM) to be investigated is applied to this area. Incubation is carried out at 37° C. under a CO2 atmosphere. The cells are investigated by fluorescence microscopy after 2, 4 and 16 hours. For this, the cells are washed four times with serum-free DMEM, covered with a glass slide and assessed under a fluorescence microscope or by phase contrast. A fluorescence-labeled PNA (without DNA part) F-(but)-tttt ttt-hex was investigated as comparison for the PNA/DNA hybrid molecules. After the cells had been incubated with this PNA for two hours, >90% of the cells show signs of pronounced morphological changes and cell death. […] The plasma membrane, the cytosol and the nucleus show no uptake of PNA. […] The situation is different with the DNA/PNA oligomers according to the invention. After incubation of the cells with the DNA/PNA oligomers for only two hours the cells show punctiform intracellular distribution of the PNA/DNA oligomers. The cells suffer no cell death even after prolonged incubation.

[7] = target: RNase L (cellular endoribonuclease L) (Homo sapiens, UniProt Q05823); conditions: HeLa cell extract, 37° C.
RNase L (cellular endoribonuclease L), sequence (Q05823 whole entry): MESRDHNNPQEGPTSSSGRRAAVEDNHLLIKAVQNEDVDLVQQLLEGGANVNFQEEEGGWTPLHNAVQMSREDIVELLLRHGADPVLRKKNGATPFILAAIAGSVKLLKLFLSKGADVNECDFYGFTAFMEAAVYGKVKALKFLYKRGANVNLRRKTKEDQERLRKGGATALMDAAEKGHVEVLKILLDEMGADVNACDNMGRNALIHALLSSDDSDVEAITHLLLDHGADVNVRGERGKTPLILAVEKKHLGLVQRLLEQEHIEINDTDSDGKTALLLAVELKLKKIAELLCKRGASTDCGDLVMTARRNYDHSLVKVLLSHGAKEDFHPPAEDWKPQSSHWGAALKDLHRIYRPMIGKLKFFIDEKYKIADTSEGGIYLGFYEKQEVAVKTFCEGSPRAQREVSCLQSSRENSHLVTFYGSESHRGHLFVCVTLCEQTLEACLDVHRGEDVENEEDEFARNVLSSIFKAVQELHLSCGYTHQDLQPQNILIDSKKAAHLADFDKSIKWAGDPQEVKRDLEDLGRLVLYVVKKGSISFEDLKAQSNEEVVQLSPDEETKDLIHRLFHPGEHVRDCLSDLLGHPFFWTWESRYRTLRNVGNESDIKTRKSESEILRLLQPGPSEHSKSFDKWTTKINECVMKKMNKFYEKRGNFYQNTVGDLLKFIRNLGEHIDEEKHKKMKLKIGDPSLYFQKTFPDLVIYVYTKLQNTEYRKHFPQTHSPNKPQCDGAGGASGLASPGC
Protocol: An HeLa cell extract was prepared in order to stimulate the activity of cellular endoribonuclease L by the 2′,5′-tetraadenylate-PNA/DNA conjugates.
For investigation of this extract for endonuclease L, initially 0.3 OD of the RNA target sequence is heated with the particular PNA/DNA oligomers at 80° C. for 5 minutes and subsequently cooled to 37° C. for the hybridization. The duplex is mixed with 20 μl of the extract, 1.2 μl of glycerol and RNase L buffer and incubated at 37° C. The total volume is then 70 μl. For the kinetic investigations, samples are removed by pipette at the times of 0, 20 and 60 minutes and heated at 95° C. for 5 minutes to denature the enzymes. The samples are lyophilized in a Speedvac and analyzed by gel electrophoresis.

[8] = antiparallel, 3′-TAG CAG CAT AAT CAG-5′
[9] = parallel, 5′-TAG CAG CAT AAT CAG-3′

For “5′-ACA TCA TGG TCG-3′ [5′-ACA TCA TGG TCG-3′ DNA] (ACATCATGGTCG; unmodified DNA) [natural DNA oligonucleotide, reference compound]”, the “TM with RNA (T = U)” value [1] was 48.6° ° C and the “TM with DNA” value (complementary DNA; ap, 3′-TGT AGT ACC AGC-5′) was 50.7° ° C.

In the case of “5′-ACA TCA TGG TCG-3′ [5′-ACA TCA TGG TCG-3′ S-DNA] (dA*dC*dA*dT*dC*dA*dT*dG*dG*dT*dC*dG) [reference compound]”, the “TM with RNA (T = U)” value [1] is reported as 43.8° ° C and the “TM with DNA” value (complementary DNA; ap, 3′-TGT AGT ACC AGC-5′) is reported as 46.7° ° C.

In the case of “5′-ASTSGS-(Oeg(a))-cgg aata-hex [Example 53]”, the “inhibition of ha-ras expression (control oligonucleotides)” value [2] is reported as “did not inhibit”.

With “5′-ATC GTC GTA TT-(Oeg(t))-agtc-hex [Example 18]” the “TM with DNA” value (complementary DNA; [8]) was “TM = 51.5 °C” and the “TM with DNA” value (complementary DNA; [9]) was “TM < 20 °C”.

With “5′-ATC GTC GTA TT-(but)-agtc-hex [Example 17]” the “TM with DNA” value (complementary DNA; [8]) was “TM = 51.0 °C” and the “TM with DNA” value (complementary DNA; [9]) was “TM < 20 °C”.

In the case of “5′-ATC GTC GTA TTA GTC-3′ (ATCGTCGTATTAGTC; DNA, backbone not given here) [natural DNA oligonucleotide (DNA · DNA duplex), reference compound]”, the “TM with DNA” value (complementary DNA; [8]) is reported as “TM = 50.5 °C”.

In the case of “5′-ATG-(Oeg(a))-cgg aata-hex [Example 52]”, the “inhibition of ha-ras expression (control oligonucleotides)” value [2] is reported as “did not inhibit”.

For “5′-CSUSGAUSAG-(Oeg(a))-catccatg-hex [Example 54]”, the “highest inhibition of VEGF expression” value ([3]; 1 μM, presence of Cellfectin (10 μg/ml)) was 43% and the “inhibition of VEGF expression” value ([3]; 0.1 to 0.4 μM, absence of Cellfectin) was 10-18%.

For “5′-GG GGG GGG (Oeg(t)) ttt ttt ttt-hex [Example 39]”, the “binding as triplex-forming oligonucleotide to DNA double strand” value [4] was “high affinity”.

In the case of “5′-GGG GGG GGG (but) ttt ttt-hex [Example 28]”, the “binding as triplex-forming oligonucleotide to DNA double strand” value [4] is reported as “high affinity”.

In the case of “5′-TSASTS-(Oeg(t))-ccgtcat-hex [Example 51]”, the “inhibition of ha-ras protein expression” value ([2]; 1 μM, in the presence of lipofectin) is reported as “almost complete inhibition”.

Substance “5′-TTT TTT TTT (but) ttt ttt-hex [Example 26]” has a stable oligomer ([5]; after an incubation time of 24 hours in medium containing cells) of 69%.

For “(5′)-(Acetyl)-taa tac gac tca cta (eae(t) A-3′ [Example 65]”, the “DNA polymerase reaction product with primer on 81-mer template (gel)” value [6] was “dNTP are polymerized”.

For “A CAT CA (Oeg(t)) ggt cg-hex [Example 31]”, the half-life ([5]; medium containing cells) was 32 h and the “inhibition of c-fos expression compared with corresponding DNA oligonucleotide and PNA oligomer” value (c-Fos protein expression) was “greater inhibition”.

In the case of F-(but)-tttt ttt-hex, the “cell death on further/prolonged incubation” value (COS cells; a further two hours or prolonged incubation) is reported as “all the cells have died”, the “cells showing pronounced morphological changes and cell death” value (COS cells; incubated two hours) is reported as greater than 90% and the “intracellular uptake (fluorescence microscopy)” value (COS cells; two hours) is reported as “no uptake”.

For “PS-rA(2′5′)rA(2′5′)rA(2′5′)rA-spacer-(Oeg(t)tc ctc ctg cgg-hex [Example 37]”, the “stimulation of RNase L” value [7] was “stimulates RNase L”.

For “taa tac gac tca cta (5′HN-T) (TAATACGACTCACTA; listed as DNA, chemistry not fully specified) [Example 36, 15 PNA units and one nucleoside unit, primer for DNA polymerase]”, the “DNA polymerase reaction product with primer on 81-mer template (gel)” value [6] was “migrates somewhat more quickly”.
